Measurements from patent US7947741B2, “Use and administration of bacterial efflux pump inhibitors” (Mpex Pharmaceuticals, Inc., priority 2004, dated 2011).
≈ marks a conversion by molar mass, not a printed value. Where two headings read alike, the source gives them in different places. Where a SMILES comes first, the peptide text is derived from it. Bridges are numbered along the chain shown (N, C = ends). [ ]: non-standard residue; d: D form. Dab = NCC[C@H](N)C(=O)O

Columns and labels:
PAM1723 cells = test: EtBr uptake (proton gradient disruption); format: cell-based, Pseudomonas aeruginosa; settings: CCCP 50 μg/ml for 15 minutes, pentamidine 80 μg/ml
Method: A proton gradient is necessary for efflux pump activity. Accordingly, compounds that are capable of proton gradient disruption will appear as efflux inhibitors in accumulation assays. This possibility was tested for pentamidine. EtBr is a substrate of the MexAB-OprM efflux pump from P. aeruginosa as evident from the differential rates of its uptake in PAM 1723 and PAM 1626, MexAB-OprM overexpressing or lacking strains, respectively. CCCP is a well-known protonophore, which rapidly dissipates the proton gradient.

[1] = system: P. aeruginosa PAM2466 (MexAB-OprM, MexXY-OprM); test: microbe, parasite or virus in culture; format: cell-based, Pseudomonas aeruginosa; settings: Pseudomonas aeruginosa
Method: (§1) A set of strains that simultaneously over-expressed pairs or triplicates of pumps, e.g. PAM2302 and PAM2303 was tested. Simultaneous over-expression of efflux pumps has been recently detected in clinical strains.

[2] = system: P. aeruginosa PAM1438 (MexAB-OprM, MexCD-OprJ); test: microbe, parasite or virus in culture; format: cell-based, Pseudomonas aeruginosa; settings: Pseudomonas aeruginosa
Method: as §1

[3] = system: P. aeruginosa PAM2302 (MexAB-OprM, MexCD-OprJ, MexEF-OprN); test: microbe, parasite or virus in culture; format: cell-based, Pseudomonas aeruginosa; settings: Pseudomonas aeruginosa
Method: as §1

[4] = system: P. aeruginosa PAM2282 (MexAB-OprM, MexEF-OprN); test: microbe, parasite or virus in culture; format: cell-based, Pseudomonas aeruginosa; settings: Pseudomonas aeruginosa
Method: as §1

[5] = system: P. aeruginosa PAM2281 (MexAB-OprM, MexEF-OprN); test: microbe, parasite or virus in culture; format: cell-based, Pseudomonas aeruginosa; settings: Pseudomonas aeruginosa
Method: as §1

[6] = system: P. aeruginosa PAM1570 (MexEF-OprN; gyrA (Thr83Ile)); test: microbe, parasite or virus in culture; format: cell-based, Pseudomonas aeruginosa; settings: Pseudomonas aeruginosa
Description: (§2) In addition to increased efflux, resistance to fluoroquinolones may be due to target mutations (gyrase and topoisimerase IV) or due to combination of these two resistance mechanisms in a single bacterial cell.

[7] = system: P. aeruginosa PAM1548 (pump status none; gyrA (Thr83Ile)); test: microbe, parasite or virus in culture; format: cell-based, Pseudomonas aeruginosa; settings: Pseudomonas aeruginosa
Description: as §2

[8] = system: P. aeruginosa PAM1482 (MexCD-OprJ; gyrA (Asp87Tyr)); test: microbe, parasite or virus in culture; format: cell-based, Pseudomonas aeruginosa; settings: Pseudomonas aeruginosa
Description: as §2

[9] = system: P. aeruginosa PAM1034 (MexEF-OprN); test: microbe, parasite or virus in culture; format: cell-based, Pseudomonas aeruginosa; settings: Pseudomonas aeruginosa
Description: as §2

[10] = system: P. aeruginosa PAM1033 (MexCD-OprJ); test: microbe, parasite or virus in culture; format: cell-based, Pseudomonas aeruginosa; settings: Pseudomonas aeruginosa
Description: as §2

[11] = system: P. aeruginosa PAM1491 (MexEF-OprN; gyrA (Asp87Tyr)); test: microbe, parasite or virus in culture; format: cell-based, Pseudomonas aeruginosa; settings: Pseudomonas aeruginosa
Description: as §2

[12] = system: P. aeruginosa PAM1569 (MexCD-OprJ; gyrA (Thr83Ile)); test: microbe, parasite or virus in culture; format: cell-based, Pseudomonas aeruginosa; settings: Pseudomonas aeruginosa
Description: as §2

[13] = system: P. aeruginosa PAM1032 (MexAB-OprM); test: microbe, parasite or virus in culture; format: cell-based, Pseudomonas aeruginosa; settings: Pseudomonas aeruginosa
Description: as §2

[14] = system: P. aeruginosa PAM1020 (pump status none; target mutation none); test: microbe, parasite or virus in culture; format: cell-based, Pseudomonas aeruginosa; settings: Pseudomonas aeruginosa
Description: as §2

[15] = system: P. aeruginosa PAM1154 (MexAB-OprM deleted); format: cell-based, Pseudomonas aeruginosa
[16] = system: P. aeruginosa PAM1723 (MexAB-OprM overexpressed); format: cell-based, Pseudomonas aeruginosa
[17] = system: 108 recent clinical isolates of P. aeruginosa obtained from cystic fibrosis patients; test: Susceptibility of cystic fibrosis clinical isolates (broth-micro-dilution, NCCLS); format: cell-based, Pseudomonas aeruginosa; settings: 108 CF isolates; combinations with 20 μg/ml of pentamidine
[18] = system: P. aeruginosa PAM1723 (nalB, overexpressing MexAB-OprM); test: microbe, parasite or virus in culture; format: cell-based, Pseudomonas aeruginosa; settings: Pseudomonas aeruginosa, read-out: Levofloxacin MIC in the presence of inhibitor, PAM1723; inhibitor 0 μg/ml
Method: Stock solutions were further diluted, according to the needs of a particular assay, in Mueller Hinton Broth (MHB). Stock solution was stored at −80° C.
The checkerboard assay was performed in microtiter plates. […] The result of these manipulations is that each well of the microtiter plate contains a unique combination of concentrations of the two agents. The assay was performed in MHB with a final bacterial inoculum of 5×10^5 CFU/ml (from an early-log phase culture). Microtiter plates were incubated during 20 h at 35° C. and were read using a microtiterplate reader (Molecular Devices) at 650 nm as well as visual observation using a microtiter plate reading mirror.
The test organisms used was PAM1020, which is a wild type strain of P. aeruginosa expressing the basal level of MexAB-OprM, as well as PAM1723, PAM1738, and PAM1753, overexpressing the MexAB-OprM, MexCD-OprJ, and MexEF-OprN pump, respectively.
Efflux pump inhibitory activity of several commercially available diamidine analogs was evaluated using the checkerboard assay of Example 1 against the strain of P. aeruginosa overexpressing the MexAB-OprM efflux pump.

[19] = system: outer membrane of P. aeruginosa strain PAM2005; settings: Mg2+ free buffer, nitrocefin 64 μg/ml
[20] = read-out: Ciprofloxacin MIC w/o pentamidine
[21] = read-out: Levofloxacin MIC w/o pentamidine

N#CC(C#N)=NNc1cccc(Cl)c1 [CCCP]
EtBr uptake (PAM1723 cells): dramatic increase of EtBr uptake

O=C(O)c1cn(C2CC2)c2cc(N3CCNCC3)c(F)cc2c1=O [Ciprofloxacin, ciprofloxacin]
MIC [1, 20]: 0.5 µg/mL (≈ 1.51 µM) | MIC [2, 20]: 16 µg/mL (≈ 48.3 µM) | MIC [3, 20]: 2 µg/mL (≈ 6.04 µM) | MIC [4, 20]: 2 µg/mL (≈ 6.04 µM) | MIC [5, 20]: 8 µg/mL (≈ 24.1 µM) | MIC [6, 20]: 16 µg/mL | MIC [7, 20]: 2 µg/mL | MIC [8, 20]: 8 µg/mL | MIC [9, 20]: 1 µg/mL | MIC [10, 20]: 1 µg/mL | MIC [11, 20]: 8 µg/mL | MIC [12, 20]: 16 µg/mL | MIC [13, 20]: 0.5 µg/mL | MIC [14, 20]: 0.06 µg/mL | MIC, No Pentamidine [15]: 0.008 µg/mL (≈ 0.0241 µM) | MIC, No Pentamidine ([16]; PAM1723 (MexAB-OprM overexpressed)): 0.25 µg/mL (≈ 0.754 µM) | MIC, Pentamidine (40 μg/ml) ([16]; PAM1723 (MexAB-OprM overexpressed), in the presence of pentamidine 40 μg/ml): 0.03 | decrease of the MIC by pentamidine ([16]; PAM1723, pentamidine 40 μg/ml): 8 fold

C[C@H]1COc2c(N3CCN(C)CC3)c(F)cc3c(=O)c(C(=O)O)cn1c23 [Levofloxacin, levofloxacin]
MIC [1, 21]: 2 µg/mL (≈ 5.53 µM) | MIC [2, 21]: 4 µg/mL (≈ 11.1 µM) | MIC [3, 21]: 8 µg/mL (≈ 22.1 µM) | MIC [4, 21]: 8 µg/mL (≈ 22.1 µM) | MIC [5, 21]: 8 µg/mL (≈ 22.1 µM) | MIC [6, 21]: 32 µg/mL | MIC [7, 21]: 2 µg/mL | MIC [8, 21]: 16 µg/mL | MIC [9, 21]: 4 µg/mL | MIC [10, 21]: 4 µg/mL | MIC [11, 21]: 32 µg/mL | MIC [12, 21]: 32 µg/mL | MIC [13, 21]: 2 µg/mL | MIC [14, 21]: 0.25 µg/mL | MIC50 [17]: 2 µg/mL | MIC90 [17]: 8 µg/mL | MIC [18]: 2 µg/mL

CC(C)C[C@@H]1NC(=O)[C@@H](Cc2ccccc2)NC(=O)[C@H](CCN)NC(=O)[C@@H](NC(=O)[C@H](CCN)NC(=O)[C@@H](N)[C@@H](C)O)CCNC(=O)[C@H]([C@@H](C)O)NC(=O)[C@H](CCN)NC(=O)[C@H](CCN)NC1=O [PMBN] (H-T[Dab][Dab][Dab][dF]L[Dab][Dab]T; lactam 3-C; N-terminus assumed)
IC50, permeabilization of the outer membrane [19]: < 2 µg/mL
